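Test compounds were applied to cells in 96-well plates for 48 hours at 5 doses. TGI marks complete inhibition of growth.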
The molecules below were run on SK-MEL-2 melanoma (assay: DTP human tumour cell line panel, 48 h).

SMILES	TGI [µM]
O=C1NC(=O)C(c2c[nH]c3ccccc23)=C1c1cnc[nH]1	> 100
Nc1ncnc2c1ccn2C/C=C\CO	> 100
Cc1c([N+](=O)[O-])ccc2c(NCCCN(C)C)ccnc12	31.8
OCCCCCCCCCCCOc1ccc(C2OCC3(CO2)COC(c2ccc(OCCCCCCCCCCCO)cc2)OC3)cc1 (centres undefined)	> 50
CC(=O)c1cccc(NC(=O)C(=O)NNc2n[nH]c(=S)n2N)c1	13.1
COC(=O)c1ccc(C(=O)NC(Cc2ccc(Oc3cc(CC(NC(=O)c4ccccc4C(=O)OC)C(=O)OC)ccc3OC)cc2)C(=O)OC)cc1 (centres undefined)	> 100
O=c1cc(N2CCOCC2)[nH]c(=O)n1-c1ccc(F)cc1	> 100
O=C(O)CC1NC(/C(=C/c2ccccc2)NC(=O)c2ccccc2)OC1=O (centres undefined)	66.6
CNC(C#N)c1ccc(OC)cc1 (centres undefined)	> 100
CCOC(=O)c1c(-c2ccc(OC)cc2)c(C#N)c(=S)n(C2OC(COC(C)=O)C(OC(C)=O)C(OC(C)=O)C2OC(C)=O)c1-c1ccccc1 (centres undefined)	> 100
CC1(c2cccs2)CC(c2cccs2)=C(C#N)C(=C(C#N)C#N)N1 (centres undefined)	37.4
CCCCc1c(N(C)C)c(OC(C)=O)c(-c2cn(C)c3ccccc23)oc1=O	40.7
CCCC(=O)n1[nH]c(=O)n(-c2ccc(Cl)cc2)c1=O	> 100
CC(C)(C)[Si](C)(C)OCC1OC(n2ccc(N)nc2=O)C(O[Si](C)(C)C(C)(C)C)C1O[Si](C)(C)C(C)(C)C (centres undefined)	4.89
O=C(O)c1ccc(N=C(C(=Nc2ccc(C(=O)O)cc2)c2ccccc2)c2ccccc2)cc1	> 100

The molecules below were run on SK-MEL-28 melanoma (assay: DTP human tumour cell line panel, 48 h).

SMILES	TGI [µM]
COc1cccc2c1OC(c1ccc(Cl)cc1)C([N+](=O)[O-])=C2 (centres undefined)	7.19
CCCCCCCCCC1(N=[N+]=[N-])C(=O)c2ccccc2N(C)C1=O (centres undefined)	78.8
C[N+](CCCl)(CCCl)Cc1cccc2cccc([N+](=O)[O-])c12	> 100
O=C1NC(=O)C(c2c[nH]c3ccccc23)=C1c1cnc[nH]1	> 100
CC(=O)O[C@H]1C[C@H]2[C@@H](OC(C)=O)/C=C3\C[C@](C)(C(=O)[C@H](O)C(=C1C)C2(C)C)[C@@H](O)C[C@@H]3OC(=O)[C@H](O)[C@H](c1ccccc1)N(C)C	> 100
Nc1ncnc2c1ccn2C/C=C\CO	> 100
Cc1c([N+](=O)[O-])ccc2c(NCCCN(C)C)ccnc12	54.5
OCCCCCCCCCCCOc1ccc(C2OCC3(CO2)COC(c2ccc(OCCCCCCCCCCCO)cc2)OC3)cc1 (centres undefined)	> 50
CC(=O)c1cccc(NC(=O)C(=O)NNc2n[nH]c(=S)n2N)c1	18.5
COC(=O)c1ccc(C(=O)NC(Cc2ccc(Oc3cc(CC(NC(=O)c4ccccc4C(=O)OC)C(=O)OC)ccc3OC)cc2)C(=O)OC)cc1 (centres undefined)	> 100
O=c1cc(N2CCOCC2)[nH]c(=O)n1-c1ccc(F)cc1	> 100
O=C(O)CC1NC(/C(=C/c2ccccc2)NC(=O)c2ccccc2)OC1=O (centres undefined)	52.4
CNC(C#N)c1ccc(OC)cc1 (centres undefined)	> 100
CC(C)(Br)C(Br)CCC1(C2CO2)CO1 (centres undefined)	> 5
CCOC(=O)c1c(-c2ccc(OC)cc2)c(C#N)c(=S)n(C2OC(COC(C)=O)C(OC(C)=O)C(OC(C)=O)C2OC(C)=O)c1-c1ccccc1 (centres undefined)	> 100
CC1(c2cccs2)CC(c2cccs2)=C(C#N)C(=C(C#N)C#N)N1 (centres undefined)	50.2
CCCCc1c(N(C)C)c(OC(C)=O)c(-c2cn(C)c3ccccc23)oc1=O	57.9
CCCC(=O)n1[nH]c(=O)n(-c2ccc(Cl)cc2)c1=O	> 100
O=C(O)c1ccc(N=C(C(=Nc2ccc(C(=O)O)cc2)c2ccccc2)c2ccccc2)cc1	> 100

Each molecule was assayed on SR leukemia (assay: DTP human tumour cell line panel, 48 h).

SMILES	TGI [µM]
COc1cccc2c1OC(c1ccc(Cl)cc1)C([N+](=O)[O-])=C2 (centres undefined)	> 100
CCCCCCCCCC1(N=[N+]=[N-])C(=O)c2ccccc2N(C)C1=O (centres undefined)	> 100
C[N+](CCCl)(CCCl)Cc1cccc2cccc([N+](=O)[O-])c12	> 100
O=C1NC(=O)C(c2c[nH]c3ccccc23)=C1c1cnc[nH]1	> 100
CC(=O)O[C@H]1C[C@H]2[C@@H](OC(C)=O)/C=C3\C[C@](C)(C(=O)[C@H](O)C(=C1C)C2(C)C)[C@@H](O)C[C@@H]3OC(=O)[C@H](O)[C@H](c1ccccc1)N(C)C	> 100
Cc1c([N+](=O)[O-])ccc2c(NCCCN(C)C)ccnc12	> 100
OCCCCCCCCCCCOc1ccc(C2OCC3(CO2)COC(c2ccc(OCCCCCCCCCCCO)cc2)OC3)cc1 (centres undefined)	> 50
CC(=O)c1cccc(NC(=O)C(=O)NNc2n[nH]c(=S)n2N)c1	16.1
COC(=O)c1ccc(C(=O)NC(Cc2ccc(Oc3cc(CC(NC(=O)c4ccccc4C(=O)OC)C(=O)OC)ccc3OC)cc2)C(=O)OC)cc1 (centres undefined)	> 100
CCOC(=O)c1c(-c2ccc(OC)cc2)c(C#N)c(=S)n(C2OC(COC(C)=O)C(OC(C)=O)C(OC(C)=O)C2OC(C)=O)c1-c1ccccc1 (centres undefined)	> 100
CC1(c2cccs2)CC(c2cccs2)=C(C#N)C(=C(C#N)C#N)N1 (centres undefined)	> 100
CCCCc1c(N(C)C)c(OC(C)=O)c(-c2cn(C)c3ccccc23)oc1=O	> 100
CCCC(=O)n1[nH]c(=O)n(-c2ccc(Cl)cc2)c1=O	> 100
CC(C)(C)[Si](C)(C)OCC1OC(n2ccc(N)nc2=O)C(O[Si](C)(C)C(C)(C)C)C1O[Si](C)(C)C(C)(C)C (centres undefined)	6.66
O=C(O)c1ccc(N=C(C(=Nc2ccc(C(=O)O)cc2)c2ccccc2)c2ccccc2)cc1	> 100

These molecules were tested on T-47D breast (assay: DTP human tumour cell line panel, 48 h).

SMILES	TGI [µM]
COc1cccc2c1OC(c1ccc(Cl)cc1)C([N+](=O)[O-])=C2 (centres undefined)	9.13
CCCCCCCCCC1(N=[N+]=[N-])C(=O)c2ccccc2N(C)C1=O (centres undefined)	9.17
C[N+](CCCl)(CCCl)Cc1cccc2cccc([N+](=O)[O-])c12	> 100
O=C1NC(=O)C(c2c[nH]c3ccccc23)=C1c1cnc[nH]1	> 100
CC(=O)O[C@H]1C[C@H]2[C@@H](OC(C)=O)/C=C3\C[C@](C)(C(=O)[C@H](O)C(=C1C)C2(C)C)[C@@H](O)C[C@@H]3OC(=O)[C@H](O)[C@H](c1ccccc1)N(C)C	> 100
Nc1ncnc2c1ccn2C/C=C\CO	> 100
Cc1c([N+](=O)[O-])ccc2c(NCCCN(C)C)ccnc12	76.5
OCCCCCCCCCCCOc1ccc(C2OCC3(CO2)COC(c2ccc(OCCCCCCCCCCCO)cc2)OC3)cc1 (centres undefined)	> 50
CC(=O)c1cccc(NC(=O)C(=O)NNc2n[nH]c(=S)n2N)c1	13.6
COC(=O)c1ccc(C(=O)NC(Cc2ccc(Oc3cc(CC(NC(=O)c4ccccc4C(=O)OC)C(=O)OC)ccc3OC)cc2)C(=O)OC)cc1 (centres undefined)	> 100
O=c1cc(N2CCOCC2)[nH]c(=O)n1-c1ccc(F)cc1	> 100
O=C(O)CC1NC(/C(=C/c2ccccc2)NC(=O)c2ccccc2)OC1=O (centres undefined)	> 100
CNC(C#N)c1ccc(OC)cc1 (centres undefined)	> 100
CC(C)(Br)C(Br)CCC1(C2CO2)CO1 (centres undefined)	> 5
CCOC(=O)c1c(-c2ccc(OC)cc2)c(C#N)c(=S)n(C2OC(COC(C)=O)C(OC(C)=O)C(OC(C)=O)C2OC(C)=O)c1-c1ccccc1 (centres undefined)	> 100
CC1(c2cccs2)CC(c2cccs2)=C(C#N)C(=C(C#N)C#N)N1 (centres undefined)	39.4
CCCCc1c(N(C)C)c(OC(C)=O)c(-c2cn(C)c3ccccc23)oc1=O	> 100
CCCC(=O)n1[nH]c(=O)n(-c2ccc(Cl)cc2)c1=O	> 100
CC(C)(C)[Si](C)(C)OCC1OC(n2ccc(N)nc2=O)C(O[Si](C)(C)C(C)(C)C)C1O[Si](C)(C)C(C)(C)C (centres undefined)	11.6
O=C(O)c1ccc(N=C(C(=Nc2ccc(C(=O)O)cc2)c2ccccc2)c2ccccc2)cc1	> 100

Each molecule was assayed on UACC-257 melanoma (assay: DTP human tumour cell line panel, 48 h).

SMILES	TGI [µM]
COc1cccc2c1OC(c1ccc(Cl)cc1)C([N+](=O)[O-])=C2 (centres undefined)	8.39
CCCCCCCCCC1(N=[N+]=[N-])C(=O)c2ccccc2N(C)C1=O (centres undefined)	> 100
C[N+](CCCl)(CCCl)Cc1cccc2cccc([N+](=O)[O-])c12	> 100
O=C1NC(=O)C(c2c[nH]c3ccccc23)=C1c1cnc[nH]1	> 100
CC(=O)O[C@H]1C[C@H]2[C@@H](OC(C)=O)/C=C3\C[C@](C)(C(=O)[C@H](O)C(=C1C)C2(C)C)[C@@H](O)C[C@@H]3OC(=O)[C@H](O)[C@H](c1ccccc1)N(C)C	> 100
Nc1ncnc2c1ccn2C/C=C\CO	> 100
Cc1c([N+](=O)[O-])ccc2c(NCCCN(C)C)ccnc12	31.4
OCCCCCCCCCCCOc1ccc(C2OCC3(CO2)COC(c2ccc(OCCCCCCCCCCCO)cc2)OC3)cc1 (centres undefined)	> 50
CC(=O)c1cccc(NC(=O)C(=O)NNc2n[nH]c(=S)n2N)c1	9.17
COC(=O)c1ccc(C(=O)NC(Cc2ccc(Oc3cc(CC(NC(=O)c4ccccc4C(=O)OC)C(=O)OC)ccc3OC)cc2)C(=O)OC)cc1 (centres undefined)	> 100
O=c1cc(N2CCOCC2)[nH]c(=O)n1-c1ccc(F)cc1	> 100
O=C(O)CC1NC(/C(=C/c2ccccc2)NC(=O)c2ccccc2)OC1=O (centres undefined)	> 100
CNC(C#N)c1ccc(OC)cc1 (centres undefined)	> 100
CC(C)(Br)C(Br)CCC1(C2CO2)CO1 (centres undefined)	> 5
CCOC(=O)c1c(-c2ccc(OC)cc2)c(C#N)c(=S)n(C2OC(COC(C)=O)C(OC(C)=O)C(OC(C)=O)C2OC(C)=O)c1-c1ccccc1 (centres undefined)	> 100
CC1(c2cccs2)CC(c2cccs2)=C(C#N)C(=C(C#N)C#N)N1 (centres undefined)	32.7
CCCCc1c(N(C)C)c(OC(C)=O)c(-c2cn(C)c3ccccc23)oc1=O	59.8
CCCC(=O)n1[nH]c(=O)n(-c2ccc(Cl)cc2)c1=O	> 100
CC(C)(C)[Si](C)(C)OCC1OC(n2ccc(N)nc2=O)C(O[Si](C)(C)C(C)(C)C)C1O[Si](C)(C)C(C)(C)C (centres undefined)	10.4
O=C(O)c1ccc(N=C(C(=Nc2ccc(C(=O)O)cc2)c2ccccc2)c2ccccc2)cc1	> 100

From PubChem BioAssay (NCI)
